The test system of test [1] is Parkinson's disease patients. Conditions: 1 mg immediate release rasagiline added to pramipexole averaging 1.5 mg per day; cited from earlier work.
The test system of test [2] is dopamine levels in mouse brain. Briefly: In vivo study of drugs in MPTP mice model of Parkinson's disease, striatal dopamine by HPLC. The settings on record: IP daily 12 days, rasagiline 0.15 mg/Kg, pramipexole 0.12, 0.1, 0.075 mg/Kg, alone or combined. Here is the method: Male C57B1/6 mice weighing 20+/−1 g are used (6-10 mice per group). MPTP is administrated by intraperitonealy (IP) injection at a dose of 40 mg/Kg per day for 5 days. Controls are naïve untreated mice injected with saline, and MPTP treated mice injected with saline (no drug treatment). Drugs, rasagiline (0.15 mg/Kg) and pramipexole (3 different doses of 0.12, 0.1 and 0.075 mg/Kg), are given alone or in 3 fixed dose combinations of rasagiline and pramipexole. The fixed dose combinations are composed of rasagiline at a constant dose of 0.15 mg/Kg and pramipexole at 3 different doses as indicated above. Both drugs are dissolved together at saline from their stock solutions to give the final desired combination dose. The application of the drugs is done daily intraperitonealy (IP) injection 30 minutes before MPTP administration. […] The effect of the treatments is assessed by measurement of dopamine and its metabolites (dihydroxyphenylacetic acid and Homovanillic acid) in left and right striatum together taken from the mice at the end of the experiment. […]
Striatum tissue samples are homogenized in ice in 500 μl homogenization buffer (0.1M perchloric acid, 0.02% EDTA and 1% ETOH) using OMNI Tip homogenizing kit of OMNI International (intermediate speed, 3×10 seconds with 5 seconds intervals). […] The supernatants are transferred into fresh tubes and Dopamine content is analyzed by HPLC. […]

On to `C#CCN[C@@H]1CCc2ccccc21` [rasagiline], for which the “combined effect on total UPDRS score, reduction compared to placebo” value in test [1] is on record as 2.4 UPDRS points. The “effect of treatment on Dopamine levels compared to saline” value in test [2] was “very low”.
